These are literature values, as cited in PMC12833850, “Hybridization Approach Applied to Umbelliferon and Vanilloids toward New Inhibitors of Carbonic Anhydrases IX and XII with In Vitro Antiproliferative and Anti-inflammatory Activities” (Journal of Medicinal Chemistry, 2026).

As a reminder, the Ki is a measure of affinity in units of concentration, obtained from inhibition or displacement.

The series addresses T1, hCA IX (Homo sapiens, UniProt Q16790).
T1 construct: made in house
To be noted: data already reported; ref Maresca and Supuran, 2010.

Take `O=c1ccc2cc(O)ccc2o1` [Compound 2, 6-hydroxycoumarin]: the Ki is 198 nM.
